Assay results published in PubChem BioAssay (NCI).
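Where inhibition never reached the appropriate level, the endpoint shown equals the highest concentration tested. Otherwise, values were interpolated linearly from a five-concentration, 48-hour dose response in 96-well plates. GI50 marks 50% less growth. TGI marks complete inhibition of growth.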

What was measured:
Assay in all cases: growth of human tumour cells (NCI), 48 h
SN12C renal = tested on: SN12C renal
HL-60(TB) leukemia = tested on: HL-60(TB) leukemia
786-0 renal = tested on: 786-0 renal
A498 renal = tested on: A498 renal
ACHN renal = tested on: ACHN renal
U251 CNS = tested on: U251 CNS
OVCAR-4 ovarian = tested on: OVCAR-4 ovarian
IGROV1 ovarian = tested on: IGROV1 ovarian
LOX IMVI melanoma = tested on: LOX IMVI melanoma
UACC-257 melanoma = tested on: UACC-257 melanoma

Structure (SMILES) | TGI (SN12C renal) [µM] | TGI (HL-60(TB) leukemia) [µM] | TGI (786-0 renal) [µM] | TGI (A498 renal) [µM] | TGI (ACHN renal) [µM] | TGI (U251 CNS) [µM] | TGI (OVCAR-4 ovarian) [µM] | TGI (IGROV1 ovarian) [µM] | TGI (LOX IMVI melanoma) [µM] | TGI (UACC-257 melanoma) [µM] | GI50 (SN12C renal) [µM] | GI50 (HL-60(TB) leukemia) [µM] | GI50 (786-0 renal) [µM] | GI50 (A498 renal) [µM] | GI50 (ACHN renal) [µM] | GI50 (U251 CNS) [µM] | GI50 (OVCAR-4 ovarian) [µM] | GI50 (IGROV1 ovarian) [µM] | GI50 (LOX IMVI melanoma) [µM] | GI50 (UACC-257 melanoma) [µM]
COc1cc(OC)c2nccc(NCCCN(C)C)c2c1[N+](=O)[O-] | > 100 | > 100 | > 100 | > 100 | > 100 | > 100 | > 100 | > 100 | > 100 | > 100 | – | – | – | – | – | – | – | – | – | –
Cc1cc(Nc2nc(-c3cccnc3)nc3ccccc23)n[nH]1 | > 100 | 49 | > 100 | 0.985 | > 100 | > 53.1 | > 100 | > 40.6 | 3.57 | > 100 | 3.21 | 3.27 | 1.31 | 0.183 | 0.527 | 1.25 | 2.05 | 1.2 | 0.712 | 42.2
COc1ccc(/C=c2\sc3n(c2=O)C2C(NN=3)N(C)C(=O)N2C)cc1 (stereo not given) | > 100 | 1.96 | > 100 | 1.49 | > 100 | > 100 | > 100 | > 100 | > 100 | > 100 | 1.63 | 0.501 | 0.492 | 0.113 | 1.53 | 1.44 | > 100 | 1.32 | 1.63 | > 100
CN(COC(=O)c1ccccc1)c1nc(N(C)COC(=O)c2ccccc2)nc(N(C)COC(=O)c2ccccc2)n1 | > 100 | > 100 | 46.5 | 40.8 | 78.7 | > 83.7 | > 100 | > 100 | > 100 | > 100 | – | – | – | – | – | – | – | – | – | –
Nc1c(O)cc(N=C2C(=O)C=CC=C2C(=O)O)c(O)c1C(=O)O | > 100 | > 100 | > 100 | > 100 | > 100 | > 100 | > 100 | > 100 | > 100 | > 100 | – | – | – | – | – | – | – | – | – | –
O=[N+]([O-])c1ccc(Oc2nc(Nc3ccc(O[C@H]4CO[C@H]5[C@@H]4OC[C@@H]5O)c(Cl)c3)ncc2F)c(Cl)c1 | 6.78 | 4.11 | 4.24 | 2.38 | 4.55 | 6.51 | 5.73 | 2.77 | 2.28 | 4.27 | 1.34 | 1.53 | 1.3 | 0.669 | 0.79 | 1.66 | 1.19 | 0.493 | 0.667 | 1.78
Oc1ccc(-c2nc3ccc4[nH]ncc4c3c3c2CCCC3)c(F)c1 | 12.5 | 8.82 | 12.1 | 6.51 | 12.5 | 6.36 | 16.1 | 12.4 | 12.4 | 5.34 | 2.99 | 2.93 | 2.5 | 2.25 | 2.08 | 1.45 | 3.38 | 2.8 | 2.9 | 1.84
CCN1C(=O)CCCc2c1ccc(Nc1ncc(Cl)c(NC3[C@@H](C(N)=O)[C@@H]4C=C[C@H]3C4)n1)c2OC (stereo not given in full) | 57.8 | 5.46 | 9.12 | 2.65 | > 30.2 | 13.9 | > 41.3 | 3.96 | 2.48 | 4.34 | 2.53 | 0.667 | 1.87 | 0.529 | 2.07 | 1.12 | 1.94 | 1.46 | 0.774 | 0.839
CN(C)c1nnnn1-c1c(N)n(C)c(=O)n(C)c1=O | > 100 | > 100 | > 100 | > 100 | > 100 | > 100 | > 100 | > 100 | > 100 | > 100 | – | – | – | – | – | – | – | – | – | –
Cc1ccc(NC(=O)C2C(=O)N(c3ccc(C)c(C)c3)C(=O)/C2=N\NC(N)=O)cc1C (stereo not given) | > 100 | > 100 | > 100 | > 100 | > 100 | > 100 | > 100 | > 100 | > 100 | > 100 | – | – | – | – | – | – | – | – | – | –
N#Cc1c(Br)n(C2OC(CO)C(O)C2O)c2ncnc(N)c12 (stereo not given) | > 100 | 2.59 | > 100 | 20.9 | > 90.9 | > 100 | 71.8 | 1.76 | 16.4 | 38.5 | 2.69 | 0.608 | 6.45 | 2.64 | 1.21 | 1.85 | 2.11 | 0.333 | 1.13 | 4.72
CCCCCCCCCCCCCCCCNCCCN(C)CCCN | 41 | 42.4 | 28.9 | 34 | 34.9 | 31.8 | 32.9 | 43.1 | 42 | 40.4 | – | – | – | – | – | – | – | – | – | –
Cn1nc(-c2ccc(Cl)cc2)nc2c(=O)n(C)c(=O)nc1-2 | 1.45 | 3.69 | 9.65 | 2.24 | 3.1 | 2.62 | 3.3 | 3.67 | 1.61 | 1.54 | 0.706 | 1.11 | 1.43 | 0.949 | 1.13 | 0.789 | 1.2 | 0.842 | 0.601 | 0.794
CCCCC(C)C(OC(=O)CC(CC(=O)O)C(=O)O)C(CC(C)CC(O)CCCCC(O)CC(O)C(C)N)OC(=O)CC(CC(=O)O)C(=O)O (stereo not given) | > 100 | > 100 | > 100 | > 100 | > 100 | > 100 | > 100 | > 100 | > 100 | > 100 | – | – | – | – | – | – | – | – | – | –
S=c1nc(COc2ccc(Cl)cc2Cl)[nH][nH]1 | > 100 | 88.8 | > 100 | > 100 | > 100 | > 100 | > 100 | > 100 | > 100 | > 100 | – | – | – | – | – | – | – | – | – | –
